Consider ten compounds from ChEMBL document CHEMBL1140501, “Validation of an automated procedure for the prediction of relative free energies of binding on a set of aldose reductase inhibitors” (Bioorg Med Chem, 2007).

This experiment deals with Aldo-keto reductase family 1 member B1 (Homo sapiens, UniProt P15121). In words: Inhibition of aldose reductase.
The term IC50 denotes the point on the concentration scale where inhibition reaches its midpoint. Lower therefore signals greater potency. With `O=C(O)Cc1nn(Cc2nc3ccc(C(F)(F)F)cc3s2)c(=O)c2ccccc12`, the IC50 worked out at 3.1 nM. Turning to `O=C(O)Cc1c(Cl)cccc1Cl`, half-maximal inhibition (IC50) required 4400 nM. The result for `Cc1ccccc1CC(=O)Nc1cc(C)c(S(=O)(=O)NCC(=O)O)c(C)c1` reads 108 nM; that for `O=C(O)COc1ccccc1C(=O)NCc1ccc(Br)cc1F`, 176 nM. The compound `O=C1C[C@@]2(C(=O)N1)C(=O)N(Cc1ccc(Br)cc1F)C(=O)c1cccn12` gave an IC50 of 15 nM. As for `O=C1C[C@]2(C(=O)N1)C(=O)N(Cc1ccc(Br)cc1F)C(=O)c1cccn12`, the figure is 190 nM; as for `O=C(O)COc1cc(F)ccc1C(=S)NCc1ccc(Br)cc1F`, 30 nM.

In the case of `O=C(O)Cc1ccccc1` [PHENYLACETIC ACID], the IC50 was 96000 nM. Regarding `O=C(O)Cc1nn(Cc2ccc(Br)cc2F)c(=O)c2ccccc12` [PONALRESTAT], the IC50 amounted to 56.5 nM. As for `O=C(O)Cn1c(=O)n(Cc2ccc(Br)cc2F)c(=O)c2ccc(Cl)cc21` [ZENARESTAT], the figure is 44 nM.
